Assay results from PubChem BioAssay (NCI).
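Following 48 hours of exposure in 96-well plates, responses at five concentrations were used to interpolate endpoints linearly. TGI: concentration producing complete growth inhibition.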

Tests used:
Assay in all cases: NCI tumour cell line growth inhibition, 48 h
COLO 205 colon = system: COLO 205 colon
EKVX NSCLC = system: EKVX NSCLC
NCI/ADR-RES ovarian = system: NCI/ADR-RES ovarian
SK-MEL-5 melanoma = system: SK-MEL-5 melanoma
SK-OV-3 ovarian = system: SK-OV-3 ovarian
HCC-2998 colon = system: HCC-2998 colon
SF-295 CNS = system: SF-295 CNS
MCF7 breast = system: MCF7 breast
SNB-19 CNS = system: SNB-19 CNS
K-562 leukemia = system: K-562 leukemia
786-0 renal = system: 786-0 renal
HCT-15 colon = system: HCT-15 colon
MDA-MB-435 = system: MDA-MB-435
MDA-N = system: MDA-N
SK-MEL-28 melanoma = system: SK-MEL-28 melanoma
RXF 393 renal = system: RXF 393 renal

SMILES	TGI (COLO 205 colon)	TGI (EKVX NSCLC)	TGI (NCI/ADR-RES ovarian)	TGI (SK-MEL-5 melanoma)	TGI (SK-OV-3 ovarian)	TGI (HCC-2998 colon)	TGI (SF-295 CNS)	TGI (MCF7 breast)	TGI (SNB-19 CNS)	TGI (K-562 leukemia)	TGI (786-0 renal)	TGI (HCT-15 colon)	TGI (MDA-MB-435)	TGI (MDA-N)	TGI (SK-MEL-28 melanoma)	TGI (RXF 393 renal)
Cc1ccc(N2C(=O)C(=O)N(/N=C3\C(=O)Nc4ccccc43)C2=S)cc1	> 100 µM	> 100 µM	> 100 µM	> 100 µM	> 100 µM	> 100 µM	> 100 µM	> 100 µM	> 100 µM	> 100 µM	> 100 µM	> 100 µM	> 100 µM	> 100 µM	> 100 µM	> 100 µM
Cn1c(=O)sc2cc(C(=S)N3CCN(c4ccccc4)CC3)ccc21	> 100 µM	> 100 µM	> 100 µM	> 100 µM	> 100 µM		53.9 µM	> 100 µM	> 100 µM	> 100 µM	> 100 µM	> 100 µM	> 100 µM	> 100 µM	> 100 µM	> 100 µM
COC(=O)CCC1(O)C=CC(=O)C=C1	40.2 µM	> 100 µM	> 100 µM	> 100 µM		> 100 µM	> 100 µM	> 100 µM	> 100 µM	> 100 µM	> 100 µM	43.2 µM	> 100 µM	> 100 µM	60.9 µM	61.5 µM
COc1nc(C)nc2c1ncn2Cc1ccccc1	> 100 µM	> 100 µM	> 100 µM	> 100 µM	> 100 µM	> 100 µM	> 100 µM	> 100 µM	> 100 µM	> 100 µM	> 100 µM	> 100 µM	> 100 µM	> 100 µM	> 100 µM	> 100 µM
Cc1cc(-c2ccc(C(=O)C(c3ccccc3)(c3ccccc3)c3ccccc3)[nH]2)on1	42.2 µM	39.9 µM	36.8 µM	29.4 µM	> 100 µM	25.6 µM	97.7 µM	> 100 µM	58.4 µM	> 100 µM	40.7 µM	41.6 µM	67.7 µM	41 µM	52.9 µM	9.46 µM
CC(=O)C1C(=O)C(=O)N(c2ccc(Br)cc2)C1=O (configuration not stated)	> 100 µM	> 100 µM	> 100 µM	> 100 µM	> 100 µM	> 100 µM	> 100 µM	> 100 µM	> 100 µM		> 100 µM	> 100 µM	> 100 µM	> 100 µM	> 100 µM	> 100 µM
O=C1C(NS(=O)(=O)c2ccccc2)=C(N(Cc2ccccc2)Cc2ccccc2)C(=O)c2ccccc21	> 100 µM	> 100 µM	> 100 µM	> 100 µM	> 100 µM		> 100 µM	> 100 µM	> 100 µM	> 100 µM	> 100 µM	> 100 µM	> 100 µM	> 100 µM	> 100 µM	67.8 µM
O=c1c(Sc2ncccn2)c(Sc2ncccn2)cnn1CCl	4.79 µM	8.65 µM	24.4 µM	21.2 µM	23.2 µM	24 µM	30 µM	11.6 µM	32.8 µM	20.5 µM	4.79 µM	11.8 µM	3.87 µM	5.59 µM	12.7 µM	3.46 µM
CC(C)(C)N=c1n(C(C)(C)C)oc(=O)n1-c1ccccc1	> 50 µM	> 50 µM	> 50 µM	> 50 µM	> 50 µM		> 50 µM	> 50 µM	> 50 µM	> 50 µM	> 50 µM	> 50 µM	> 50 µM	> 50 µM	> 50 µM	> 50 µM
COC(=O)[C@@H]1[C@H](O)CC[C@H]2[C@@]1(C)CC[C@@H](C)[C@]2(COC(C)=O)CC(=O)c1ccoc1	> 50 µM	> 50 µM	> 50 µM	> 50 µM	> 50 µM		> 50 µM	> 50 µM	> 50 µM		> 50 µM	> 50 µM	> 50 µM	> 50 µM	> 50 µM	> 50 µM
Cc1ccc(-n2cc(-c3ccc(Cl)cc3)c3c2N=CN2NC(c4cccs4)=NC32)cc1 (configuration not stated)	28.7 µM	57.1 µM	40.9 µM	> 100 µM	37.3 µM	> 100 µM	25.2 µM	> 100 µM	51.1 µM	> 100 µM	15.5 µM	> 100 µM	> 100 µM	> 100 µM	> 100 µM	31.4 µM
CCOP(=O)(OCC)C(=C1C=C(C(C)(C)C)C(=O)C(C(C)(C)C)=C1)P(=O)(OCC)OCC	4.2 µM	> 10 µM	> 10 µM	> 10 µM	> 10 µM	> 10 µM	> 10 µM	> 10 µM	> 10 µM	> 7.45 µM	> 5.51 µM	> 6.87 µM	> 10 µM	> 9.4 µM	> 10 µM	> 10 µM
Cc1cn2c(/C=C3/C(=O)Nc4ccccc43)c(C)nc2s1	15.6 µM	> 100 µM	> 100 µM	14.6 µM	25.7 µM	19.5 µM	> 100 µM	> 100 µM	> 100 µM	17.2 µM	> 100 µM	> 100 µM	0.619 µM	0.492 µM	> 100 µM	> 100 µM
COC(=O)C1=NN2c3ccccc3CN([C@@H](C)c3ccccc3)C(=O)[C@H]2[C@@H]1C	66.8 µM	> 100 µM	> 100 µM	30.1 µM	> 100 µM	> 100 µM	> 100 µM	> 100 µM	> 100 µM	> 100 µM	> 100 µM	> 100 µM	> 100 µM	> 100 µM	> 100 µM	> 100 µM
Cc1ccc(Nc2cn(COCc3ccccc3)c(=O)[nH]c2=O)cc1	> 100 µM	> 100 µM	> 100 µM	> 100 µM		> 100 µM	> 100 µM	> 100 µM	> 100 µM	> 100 µM	> 100 µM	> 100 µM	> 100 µM	> 100 µM	> 100 µM	> 100 µM
